According to patent US12023319B2, “Carboxylic acid aromatic amides” (priority 2016, dated 2024):

Target: T1, human Bradykinin B1 receptor (Homo sapiens, UniProt P46663)
T1 construct: host or cells: CHO-K1
T1 sequence (P46663 1-353): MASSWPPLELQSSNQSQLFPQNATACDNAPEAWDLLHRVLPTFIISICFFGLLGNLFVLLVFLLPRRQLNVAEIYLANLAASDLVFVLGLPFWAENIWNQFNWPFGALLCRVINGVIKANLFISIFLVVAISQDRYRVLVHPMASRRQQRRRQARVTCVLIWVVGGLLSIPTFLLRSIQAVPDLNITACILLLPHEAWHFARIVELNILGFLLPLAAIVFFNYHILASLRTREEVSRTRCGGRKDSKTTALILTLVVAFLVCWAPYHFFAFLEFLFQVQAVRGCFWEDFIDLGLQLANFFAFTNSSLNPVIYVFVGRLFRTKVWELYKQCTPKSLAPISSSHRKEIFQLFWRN
Assay: Calcium flux assay (FLIPR), CHO-K1 cells expressing human Bradykinin B1 receptor, absence of 0.1% BSA (hB1 free IC50)
Format: cell-based
Details: absence of 0.1% BSA in assay buffer
Description: The potency to inhibit the Bradykinin B1 receptor was determined for the Compound Examples of this invention in a cell-based fluorescent calcium-mobilisation assay. The assay measures the ability of Compound Examples to inhibit Bradykinin B1 receptor agonist-induced increase of intracellular free Ca^2+ in the cell line expressing Bradykinin B1 receptor. Specifically, calcium indicator-loaded cells are pre-incubated in the absence or presence of different concentrations of Compound Examples followed by the stimulation with a selective Bradykinin B1 receptor agonist peptide. The change of the intracellular Ca^2+ concentration is monitored with a fluorescent plate reader FLIPR^TETRA® (Molecular Devices).
Calcium Flux Assays (FLIPR) with Cells Expressing Human Bradykinin B1 Receptor (hB1)
CHO-K1 cell line expressing human Bradykinin B1 receptor is purchased from Euroscreen (Gosselies, Belgium, with reference name hB1-D1). The cells are grown in Nutrient Mixture Ham's F12 (Sigma) containing 10% Foetal bovine serum (Sigma) and 400 μg/mL G418 (Sigma), 5 μg/mL puromycin (Sigma).
The effect of BSA on the potency of endothelin receptor antagonists have been described in the prior art (Wu-Wong, J. R. et al. (1997), JPET 281: 791-798). The teaching can be applied in analogy to testing the potency of Bradykinin B1 receptor antagonist in the FLIPR assays.
For the calcium flux assay, 80% confluent cells are detached from the culture vessels with Versene (Gibco), and seeded into 384-well plates (Cell binding Surface; Corning, NY; #3683) at a density of 15,000 cells per well. Cells are seeded in a volume of 50 μL in medium without antibiotics and incubated overnight in a humidified atmosphere with 5% CO2 at 37° C. […] The calcium indicator loaded cells are incubated at 37° C. for 2 hrs. Extracellular dye is then removed and each well is filled with 45 μL of assay buffer. Cell plates are kept in dark until used. Compound examples are assayed at 8 concentrations in triplicate. Serial 10-fold dilutions in 100% DMSO are made at a 100-times higher concentration than the final concentration, and then diluted 1:10 in assay buffer. 5 μL of each diluted compound is added to the well of cell plates (yielding final concentration with 1% DMSO), and incubated for 30 min at 28° C. before the addition of Bradykinin B1 receptor agonist on the FLIPR instrument.
The addition of agonist 20 μl per well to the assay plate is carried out on the FLIPR instrument while continuously monitoring Ca2+-dependent fluorescence at 538 nm. A peptide antagonist Lys-(Des-Arg-Leu)-Bradykinin (Bachem, Brackley) at 20 µM is used to determine the full inhibition as control.
Peak fluorescence is used to determine the response to agonist obtained at each concentration of Compound Examples by the following equation: % Response=100*(RFU(compound)−RFU(control))/(RFU(DMSO)−RFU(control))
RFU means relative fluorescence units.
Control means full inhibition by the peptide antagonist Lys-(Des-Arg-Leu)-Bradykinin at 20 µM.
The response values are plotted against the logarithm of the compound concentrations. The Compound Examples are tested in triplicates per plate and mean values are plotted in Excel XLfit to determine IC50 values, percentage of maximal inhibition and the Hill slopes.

Compound | IC50 [nM]
O=C(O)c1cc(NC(=O)C2(c3ccc(OC(F)(F)F)cc3)CC2)ccc1-c1cnn(C2CCC2)c1 [Example 78, 2-(1-Cyclobutyl-1H-pyrazol-4-yl)-5-[({1-[4-(trifluoromethoxy)phenyl]cyclopropyl}carbonyl)amino]benzoic acid] | 300
Cc1ccc(C2(C(=O)Nc3ccc(-c4cnn(C5CCC5)c4)c(C(=O)O)c3)CC2)c(F)c1 [Example 80, 2-(1-Cyclobutyl-1H-pyrazol-4-yl)-5-({[1-(2-fluoro-4-methylphenyl)cyclopropyl]carbonyl}amino)benzoic acid] | 120
Cc1ccc(C2(C(=O)Nc3ccc(-c4cnn(C5CCC5)c4)c(C(=O)O)c3)CC2)cc1F [Example 81, 2-(1-Cyclobutyl-1H-pyrazol-4-yl)-5-({[1-(3-fluoro-4-methylphenyl)cyclopropyl]carbonyl}amino)benzoic acid] | 680
O=C(O)c1cc(NC(=O)C2(c3ccc(F)cn3)CC2)ccc1-c1cnn(C2CCC2)c1 [Example 82, 2-(1-Cyclobutyl-1H-pyrazol-4-yl)-5-({[1-(5-fluoropyridin-2-yl)cyclopropyl]carbonyl}amino)benzoic acid] | 2500
O=C(O)c1cc(NC(=O)C2(c3ccc(C(F)(F)F)cc3F)CC2)ccc1-c1cnn([C@@H]2CCOC2)c1 [Example 83, 5-[({1-[2-Fluoro-4-(trifluoromethyl)phenyl]cyclopropyl}carbonyl)amino]-2-{1-[(3R)-tetrahydrofuran-3-yl]-1H-pyrazol-4-yl}benzoic acid] | 560
O=C(O)c1cc(NC(=O)C2(c3ccc(C(F)(F)F)cc3F)CC2)ccc1-c1cnn([C@H]2CCOC2)c1 [Example 84, 5-[({1-[2-Fluoro-4-(trifluoromethyl)phenyl]cyclopropyl}carbonyl)amino]-2-{1-[(3S)-tetrahydrofuran-3-yl]-1H-pyrazol-4-yl}benzoic acid] | 570
O=C(O)c1c(-c2cnn(C3CCC3)c2)ccc(NC(=O)C2(c3ccc(C(F)(F)F)cc3F)CC2)c1F [Example 98, 6-(1-Cyclobutyl-1H-pyrazol-4-yl)-2-fluoro-3-[({1-[2-fluoro-4-(trifluoromethyl)phenyl]cyclopropyl}carbonyl)amino]benzoic acid] | 2700
O=C(O)c1c(-c2cnn(C3CCC3)c2)ccc(NC(=O)C2(c3ccc(OC(F)(F)F)cc3F)CC2)c1F [Example 99, 6-(1-Cyclobutyl-1H-pyrazol-4-yl)-2-fluoro-3-[({1-[2-fluoro-4-(trifluoromethoxy)phenyl]cyclopropyl}carbonyl)amino]benzoic acid] | 2000
O=C(O)c1cc(NC(=O)C2(c3ccc(C(F)(F)F)cc3F)CC2)cc(Cl)c1-c1ccc(C(F)F)nc1 [Example 102, 3-Chloro-2-[6-(difluoromethyl)pyridin-3-yl]-5-[({1-[2-fluoro-4-(trifluoromethyl)phenyl]cyclopropyl}carbonyl)amino]benzoic acid] | 110
O=C(O)c1cc(NC(=O)C2(c3ccc(C(F)(F)F)cc3F)CC2)cc(Cl)c1-c1ccc(C(F)(F)F)nc1 [Example 104, 3-Chloro-5-[({1-[2-fluoro-4-(trifluoromethyl)phenyl]cyclopropyl}carbonyl)amino]-2-[6-(trifluoromethyl)pyridin-3-yl]benzoic acid] | 130
Cc1cc(NC(=O)C2(c3ccc(C(F)(F)F)cc3F)CC2)cc(C(=O)O)c1-c1ccc(C(F)F)nc1 [Example 109, 2-[6-(Difluoromethyl)pyridin-3-yl]-5-[({1-[2-fluoro-4-(trifluoromethyl)phenyl]cyclopropyl}carbonyl)amino]-3-methylbenzoic acid] | 770

Compounds with a lower IC50, results first:

IC50 [nM] | Compound
71 | CC(C)n1cc(-c2c(F)cc(NC(=O)C3(c4ccc(C(F)(F)F)cc4)CC3)cc2C(=O)O)cn1 [Example 85, 3-Fluoro-2-[1-(propan-2-yl)-1H-pyrazol-4-yl]-5-[({1-[4-(trifluoromethyl)phenyl]cyclopropyl}carbonyl)amino]benzoic acid]
69 | CC(C)n1cc(-c2c(F)cc(NC(=O)C3(c4ccc(OC(F)(F)F)cc4)CC3)cc2C(=O)O)cn1 [Example 86, 3-Fluoro-2-[1-(propan-2-yl)-1H-pyrazol-4-yl]-5-[({1-[4-(trifluoromethoxy)phenyl]cyclopropyl}carbonyl)amino]benzoic acid]
62 | O=C(O)c1cc(NC(=O)C2(c3ccc(OC(F)(F)F)cc3F)CC2)cc(Cl)c1-c1ccc(C(F)F)nc1 [Example 103, 3-Chloro-2-[6-(difluoromethyl)pyridin-3-yl]-5-[({1-[2-fluoro-4-(trifluoromethoxy)phenyl]cyclopropyl}carbonyl)amino]benzoic acid]
61 | CC(C)(C)n1cc(-c2c(F)cc(NC(=O)C3(c4ccc(C(F)(F)F)cc4F)CC3)cc2C(=O)O)cn1 [Example 93, 2-(1-tert-Butyl-1H-pyrazol-4-yl)-3-fluoro-5-[({1-[2-fluoro-4-(trifluoromethyl)phenyl]cyclopropyl}carbonyl)amino]benzoic acid]
60 | O=C(O)c1cc(NC(=O)C2(c3ccc(C(F)(F)F)c(F)c3)CC2)ccc1-c1cnn(C2CCC2)c1 [Example 79, 2-(1-Cyclobutyl-1H-pyrazol-4-yl)-5-[({1-[3-fluoro-4-(trifluoromethyl)phenyl]cyclopropyl}carbonyl)amino]benzoic acid]
38 | Cc1ccc(C2(C(=O)Nc3cc(F)c(-c4cnn(C(C)C)c4)c(C(=O)O)c3)CC2)c(F)c1 [Example 87, 3-Fluoro-5-({[1-(2-fluoro-4-methylphenyl)cyclopropyl]carbonyl}amino)-2-[1-(propan-2-yl)-1H-pyrazol-4-yl]benzoic acid]
29 | CC(C)Cn1cc(-c2c(F)cc(NC(=O)C3(c4ccc(C(F)(F)F)cc4F)CC3)cc2C(=O)O)cn1 [Example 92, 3-Fluoro-5-[({1-[2-fluoro-4-(trifluoromethyl)phenyl]cyclopropyl}carbonyl)amino]-2-(1-isobutyl-1H-pyrazol-4-yl)benzoic acid]
28 | CC(C)(C)n1cc(-c2ccc(NC(=O)C3(c4ccc(C(F)(F)F)cc4F)CC3)cc2C(=O)O)cn1 [Example 72, 2-(1-tert-Butyl-1H-pyrazol-4-yl)-5-[({1-[2-fluoro-4-(trifluoromethyl)phenyl]cyclopropyl}carbonyl)amino]benzoic acid]
24 | CC(C)(C)c1cn(-c2c(F)cc(NC(=O)C3(c4ccc(C(F)(F)F)cc4F)CC3)cc2C(=O)O)cn1 [Example 90, 2-(4-tert-Butyl-1H-imidazol-1-yl)-3-fluoro-5-[({1-[2-fluoro-4-(trifluoromethyl)phenyl]cyclopropyl}carbonyl)amino]benzoic acid]
20 | O=C(O)c1cc(NC(=O)C2(c3ccc(C(F)(F)F)cc3F)CC2)cc(F)c1-c1ccc(C(F)F)nc1 [Example 94, 2-[6-(Difluoromethyl)pyridin-3-yl]-3-fluoro-5-[({1-[2-fluoro-4-(trifluoromethyl)phenyl]cyclopropyl}carbonyl)amino]benzoic acid]
11 | CC(C)(C)Cn1cc(-c2ccc(NC(=O)C3(c4ccc(C(F)(F)F)cc4F)CC3)cc2C(=O)O)cn1 [Example 76, 2-[1-(2,2-Dimethylpropyl)-1H-pyrazol-4-yl]-5-[({1-[2-fluoro-4-(trifluoromethyl)phenyl]cyclopropyl}carbonyl)amino]benzoic acid]
